US12258423B2, “Stapled and stitched polypeptides and uses thereof” (President and Fellows of Harvard College, priority 2013, dated 2025)

Assay: Circular dichroism (CD) spectroscopy of peptide helicity
Conditions: unlabeled peptide, 10 mM sodium phosphate pH 7.0, FIG. 11D
Experimental: Circular Dichroism (CD) Spectroscopy: CD spectra (FIGS. 11A-11D) were obtained using unlabeled peptides in 10 mM sodium phosphate pH 7.0 buffer. The raw data has been converted to the concentration-independent unit of molar ellipticity. α-Helices typically show dual minima at approximately 208 nm and 222 nm and a maximum at approximately 192 nm.

Q: For CC(=O)N[C@H](C(=O)N[C@@H](CO)C(=O)N[C@@H](Cc1ccccc1)C(=O)N[C@]12CCN(C1)C(=O)OCCCCOC(=O)N1CC[C@@](C(N)=O)(C1)NC(=O)[C@H](CC(C)C)NC(=O)[C@H](CC(C)C)NC(=O)[C@H](C)NC(=O)[C@H](Cc1[nH]cc3ccccc13)NC(=O)[C@H](Cc1ccc(O)cc1)NC(=O)[C@H](CCC(=O)O)NC2=O)C(C)O (single isomer, unassigned) [Ac-PM2 PyrR/PyrS Alloc-Stapled], which “α-helical character (CD spectrum)” value is on record?
A: a-helical
